Measurements: article PMC9599461, “Stereoselectivity in the Membrane Transport of Phenylethylamine Derivatives by Human Monoamine Transporters and Organic Cation Transporters 1, 2, and 3” (Biomolecules, 2022)

How the values were obtained:
OCT3 = target: T1, OCT3 (Homo sapiens, UniProt O75751); assay: Stereoselective uptake into OCT3-overexpressing HEK293 cells; settings: for Vmax ± SEM / Km: HEK293 cells overexpressing human OCT3, racemic substrate, two minutes; for Vmax ± SEM: net uptake; for Clint ± SEM / Stereoselectivity Vmax / Stereoselectivity ClInt / Stereoselectivity Km: OCT3; for Clint ± SEM: quotient of vmax over Km; for Stereoselectivity Vmax / Stereoselectivity ClInt / Stereoselectivity Km: ratio between enantiomers; for Stereoselectivity Vmax: given as for (R) or for 1; for Stereoselectivity Km: given as for (R) or for 1 (first-eluting); for Km: read-out: Km ± SEM, net uptake minus empty vector control
T1 sequence (O75751 1-556): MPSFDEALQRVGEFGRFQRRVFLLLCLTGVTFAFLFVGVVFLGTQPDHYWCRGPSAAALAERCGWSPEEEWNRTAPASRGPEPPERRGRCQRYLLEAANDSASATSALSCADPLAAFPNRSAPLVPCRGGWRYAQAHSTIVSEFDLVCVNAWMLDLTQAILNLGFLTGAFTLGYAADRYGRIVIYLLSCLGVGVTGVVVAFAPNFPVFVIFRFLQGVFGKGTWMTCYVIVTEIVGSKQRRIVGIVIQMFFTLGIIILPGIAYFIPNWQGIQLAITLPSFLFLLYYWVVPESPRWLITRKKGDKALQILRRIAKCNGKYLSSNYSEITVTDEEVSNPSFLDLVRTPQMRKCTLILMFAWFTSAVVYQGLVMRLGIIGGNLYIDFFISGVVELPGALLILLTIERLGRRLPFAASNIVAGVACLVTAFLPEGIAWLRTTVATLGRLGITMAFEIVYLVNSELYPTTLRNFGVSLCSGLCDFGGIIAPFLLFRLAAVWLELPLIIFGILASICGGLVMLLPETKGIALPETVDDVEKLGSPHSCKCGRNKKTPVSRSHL

OCT2 A270S variant = assay: Stereoselective uptake into OCT2 A270S variant-overexpressing HEK293 cells; settings: OCT2 wild-type versus A270S, 100 μM racemic substance, two minutes, given as for WT
Procedure: (§1) All transport experiments were carried out in HEK293 cells stably overexpressing human MATs or OCTs. […] All cells were regularly cultivated in DMEM supplemented with 10% (v/v) FCS, penicillin (100 U/mL) and streptomycin (100 μg/mL)and kept in culture for no longer than 30 passages.
(§2) For the uptake experiments, 300,000 cells were plated in poly-D-lysine precoated 24-well plates 48 h ahead of the transport experiment. On the day of experiment, cells were initially washed once with 37 °C pre-warmed HBSS+ (Hanks buffered salt solution supplemented with 10 mM HEPES) and subsequently incubated with the substrates dissolved in pre-warmed HBSS+ for exactly two minutes. Incubation was stopped by adding ice-cold HBSS+ followed by two washing steps. After this, cells were lysed with 80% acetonitrile containing 10 ng/mL milnacipran as internal standard for high-performance liquid chromatography coupled to tandem mass spectrometry (HPLC-MS/MS) analysis. For every experiment, two additional wells per cell line were lysed using RIPA buffer for protein quantification. Total protein was quantified using the bicinchoninic acid assay [42]. This was later used for normalization of the uptake data.
(§3) Intracellularly accumulated test substances were quantified by HPLC-MS/MS analysis using a Shimadzu Nexera HPLC system with a SIL-30AC autosampler, a CTO-20AC column oven, a LC-30AD pump, and a CBM-20A controller (Shimadzu, Kyoto, Japan). Stereoselective chromatography was carried out on a [sequence] CBH HPLC column (100 × 3 mm inner dimension with 5 μM particle size; Sigma-Aldrich, Darmstadt, Germany) with a corresponding 10 × 3 mm guard column. Reversed phased chromatography was carried out using an ammonium acetate (NH4Ac) buffered aqueous mobile phase with isopropyl alcohol (IPA) as organic solvent. […] The order of elution of the enantiomers was obtained from available reference literature [43] or by applying enantiopure reference compounds to the chiral HPLC. […] However, in every other case where the order of elution was available, the (R)-enantiomer eluted first. Given the structural similarity of the investigated substances and the fact that separation was performed on the same column with almost identical mobile phases, we assume that this order of elution for our compound set is always the (R)- before the (S)-enantiomer.
(§4) Detection was performed with an API 4000 tandem mass spectrometer (AB SCIEX, Darmstadt, Germany) operating in multiple-reaction-monitoring mode. Quantification was performed using the Analyst 1.6.2 software (AB SCIEX, Darmstadt, Germany) and quantified by comparison to standard curves with known concentrations.
(§5) All uptake data were normalized to protein content to account for variation in the number of seeded sells. Transporter-mediated net uptake was calculated by subtracting uptake into empty vector-transfected control cells from uptake into transporter-transfected cells. Kinetic parameters were then determined after non-linear regression following the Michaelis–Menten equation (v = vmax × [S]/(Km + [S])) using GraphPad Prism (Version 5.01 for Windows, GraphPad Software, La Jolla, CA, USA). Vmax refers to the maximum transport velocity and Km is defined as the substance concentration required to reach half of vmax. The intrinsic clearance Clint was calculated as the quotient of vmax over Km.
(§6) HEK293 cells stably overexpressing wild-type or mutant OCT2 were incubated with 100 μM racemic substance for two minutes.

DAT = DAT (Homo sapiens, UniProt Q01959); assay: Stereoselective uptake into DAT-overexpressing HEK293 cells; settings: for Clint ± SEM: quotient of vmax over Km; for Stereoselectivity Vmax / Stereoselectivity Km / Stereoselectivity ClInt: ratio between enantiomers; for Stereoselectivity Vmax: given as for (S) or for 2; for Stereoselectivity Km: given as for (S) or for 2 (second-eluting); for Stereoselectivity ClInt: printed as for (R) or for 1 (also 1.00-fold for (R/S)); for Vmax ± SEM / Km: HEK293 cells overexpressing human DAT, racemic substrate, two minutes; for Vmax ± SEM: net uptake; for Km: read-out: Km ± SEM, net uptake minus empty vector control
DAT, sequence (Q01959 whole entry): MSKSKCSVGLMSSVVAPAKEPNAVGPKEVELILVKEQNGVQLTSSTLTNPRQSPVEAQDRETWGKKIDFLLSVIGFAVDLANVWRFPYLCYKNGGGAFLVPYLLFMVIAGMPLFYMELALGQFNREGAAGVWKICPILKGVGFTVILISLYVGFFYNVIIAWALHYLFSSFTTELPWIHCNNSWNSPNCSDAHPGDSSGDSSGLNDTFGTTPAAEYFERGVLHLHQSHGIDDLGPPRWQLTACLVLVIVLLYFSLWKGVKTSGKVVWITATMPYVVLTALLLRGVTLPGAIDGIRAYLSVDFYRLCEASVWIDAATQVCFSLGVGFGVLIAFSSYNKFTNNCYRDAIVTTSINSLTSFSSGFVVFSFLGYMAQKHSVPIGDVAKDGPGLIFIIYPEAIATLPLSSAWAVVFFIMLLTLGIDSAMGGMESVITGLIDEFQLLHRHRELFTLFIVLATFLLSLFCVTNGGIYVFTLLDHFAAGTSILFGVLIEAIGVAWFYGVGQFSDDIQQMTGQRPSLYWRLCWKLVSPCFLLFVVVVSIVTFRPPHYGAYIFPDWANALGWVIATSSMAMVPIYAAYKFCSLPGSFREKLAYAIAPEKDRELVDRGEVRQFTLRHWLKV

SERT = SERT (Homo sapiens, UniProt P31645); assay: Stereoselective uptake into SERT-overexpressing HEK293 cells; settings: SERT; for Saturable net uptake: result in words
SERT, sequence (P31645 whole entry): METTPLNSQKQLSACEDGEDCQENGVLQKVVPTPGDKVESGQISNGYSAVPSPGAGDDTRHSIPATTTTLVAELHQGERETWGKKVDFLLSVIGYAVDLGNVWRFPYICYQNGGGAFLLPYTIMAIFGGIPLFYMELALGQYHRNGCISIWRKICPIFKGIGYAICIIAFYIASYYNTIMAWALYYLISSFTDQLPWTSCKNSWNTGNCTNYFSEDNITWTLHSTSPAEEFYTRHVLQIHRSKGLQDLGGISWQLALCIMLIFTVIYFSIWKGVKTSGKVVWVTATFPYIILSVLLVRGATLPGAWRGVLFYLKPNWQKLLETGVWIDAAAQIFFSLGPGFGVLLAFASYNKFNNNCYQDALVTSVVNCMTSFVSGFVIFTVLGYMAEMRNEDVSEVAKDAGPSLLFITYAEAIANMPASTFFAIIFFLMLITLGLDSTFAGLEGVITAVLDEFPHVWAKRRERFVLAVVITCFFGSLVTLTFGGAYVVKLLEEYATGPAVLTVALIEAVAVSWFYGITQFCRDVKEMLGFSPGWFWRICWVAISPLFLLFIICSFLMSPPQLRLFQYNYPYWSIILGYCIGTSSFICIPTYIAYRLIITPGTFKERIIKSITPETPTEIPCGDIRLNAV
Procedure: as §1, §2
Intracellularly accumulated test substances were quantified by HPLC-MS/MS analysis using a Shimadzu Nexera HPLC system with a SIL-30AC autosampler, a CTO-20AC column oven, a LC-30AD pump, and a CBM-20A controller (Shimadzu, Kyoto, Japan). […] CBH HPLC column (100 × 3 mm inner dimension with 5 μM particle size; Sigma-Aldrich, Darmstadt, Germany) with a corresponding 10 × 3 mm guard column. Reversed phased chromatography was carried out using an ammonium acetate (NH4Ac) buffered aqueous mobile phase with isopropyl alcohol (IPA) as organic solvent. […] The order of elution of the enantiomers was obtained from available reference literature [43] or by applying enantiopure reference compounds to the chiral HPLC.
as §4
All uptake data were normalized to protein content to account for variation in the number of seeded sells. Transporter-mediated net uptake was calculated by subtracting uptake into empty vector-transfected control cells from uptake into transporter-transfected cells. […] Vmax refers to the maximum transport velocity and Km is defined as the substance concentration required to reach half of vmax. The intrinsic clearance Clint was calculated as the quotient of vmax over Km.

OCT1 = target: T2, OCT1 (Homo sapiens, UniProt O15245); assay: Stereoselective uptake into OCT1-overexpressing HEK293 cells; settings: for Vmax ± SEM / Km: HEK293 cells overexpressing human OCT1, racemic substrate, two minutes; for Vmax ± SEM: net uptake; for Clint ± SEM / Stereoselectivity Vmax / Stereoselectivity ClInt / Stereoselectivity Km / selectivity ratio at 2 min: OCT1; for Clint ± SEM: quotient of vmax over Km; for Stereoselectivity Vmax / Stereoselectivity ClInt / Stereoselectivity Km / selectivity ratio at 2 min: ratio between enantiomers; for Stereoselectivity ClInt: given as for (R) or for 1 (also 1.00-fold for 1/2); for Km: read-out: Km ± SEM, net uptake minus empty vector control; for selectivity ratio at 2 min: human
T2 sequence (O15245 1-554): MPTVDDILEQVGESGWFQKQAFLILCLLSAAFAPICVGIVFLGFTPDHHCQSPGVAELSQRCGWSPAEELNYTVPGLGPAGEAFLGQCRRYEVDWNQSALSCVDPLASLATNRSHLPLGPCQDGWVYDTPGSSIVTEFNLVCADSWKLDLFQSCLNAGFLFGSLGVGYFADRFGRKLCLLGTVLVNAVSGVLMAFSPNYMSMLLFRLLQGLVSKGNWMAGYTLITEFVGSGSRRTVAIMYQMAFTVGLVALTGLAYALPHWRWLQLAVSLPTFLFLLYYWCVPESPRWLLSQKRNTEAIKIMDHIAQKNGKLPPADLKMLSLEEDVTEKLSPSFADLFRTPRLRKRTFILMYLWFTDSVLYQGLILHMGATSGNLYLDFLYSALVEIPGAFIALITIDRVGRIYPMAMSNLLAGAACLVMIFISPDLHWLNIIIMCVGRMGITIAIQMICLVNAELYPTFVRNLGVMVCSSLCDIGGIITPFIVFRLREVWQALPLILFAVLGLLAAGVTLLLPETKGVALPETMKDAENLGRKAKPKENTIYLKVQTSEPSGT
Procedure: as §1, §2
Intracellularly accumulated test substances were quantified by HPLC-MS/MS analysis using a Shimadzu Nexera HPLC system with a SIL-30AC autosampler, a CTO-20AC column oven, a LC-30AD pump, and a CBM-20A controller (Shimadzu, Kyoto, Japan). Stereoselective chromatography was carried out on a [sequence] CBH HPLC column (100 × 3 mm inner dimension with 5 μM particle size; Sigma-Aldrich, Darmstadt, Germany) with a corresponding 10 × 3 mm guard column. Reversed phased chromatography was carried out using an ammonium acetate (NH4Ac) buffered aqueous mobile phase with isopropyl alcohol (IPA) as organic solvent. […] The order of elution of the enantiomers was obtained from available reference literature [43] or by applying enantiopure reference compounds to the chiral HPLC. […] Given the structural similarity of the investigated substances and the fact that separation was performed on the same column with almost identical mobile phases, we assume that this order of elution for our compound set is always the (R)- before the (S)-enantiomer.
as §4, §5

OCT2 = target: T3, OCT2 (Homo sapiens, UniProt O15244); assay: Stereoselective uptake into OCT2 (wild-type)-overexpressing HEK293 cells; settings: for Vmax ± SEM: HEK293 cells overexpressing human OCT2, racemic substrate, two minutes, net uptake; for Clint ± SEM / selectivity ratio at 2 min: OCT2; for Clint ± SEM: quotient of vmax over Km; for selectivity ratio at 2 min: human, ratio between enantiomers
T3 sequence (O15244 1-555 S270A): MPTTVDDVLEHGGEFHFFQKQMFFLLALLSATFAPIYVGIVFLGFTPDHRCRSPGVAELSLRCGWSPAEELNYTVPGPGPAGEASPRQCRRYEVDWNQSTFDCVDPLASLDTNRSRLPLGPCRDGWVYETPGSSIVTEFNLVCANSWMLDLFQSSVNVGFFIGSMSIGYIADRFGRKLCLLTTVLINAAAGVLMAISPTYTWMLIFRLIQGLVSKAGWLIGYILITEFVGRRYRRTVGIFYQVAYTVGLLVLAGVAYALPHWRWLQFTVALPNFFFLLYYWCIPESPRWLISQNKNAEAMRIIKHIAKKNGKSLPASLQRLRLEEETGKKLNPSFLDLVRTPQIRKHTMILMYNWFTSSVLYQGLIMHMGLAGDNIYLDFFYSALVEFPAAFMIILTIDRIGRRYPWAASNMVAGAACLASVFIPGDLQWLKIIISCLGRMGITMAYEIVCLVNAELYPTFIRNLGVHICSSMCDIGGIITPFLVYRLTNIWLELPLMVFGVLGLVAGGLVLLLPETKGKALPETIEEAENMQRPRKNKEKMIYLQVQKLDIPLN
Procedure: as §1, §2, §3, §4, §5, §6

NET = NET (Homo sapiens, UniProt P23975); assay: Stereoselective uptake into NET-overexpressing HEK293 cells; settings: for Vmax ± SEM / Km: HEK293 cells overexpressing human NET, racemic substrate, two minutes; for Vmax ± SEM: net uptake; for Clint ± SEM / Stereoselectivity Km / Stereoselectivity ClInt / Stereoselectivity Vmax: NET; for Clint ± SEM: quotient of vmax over Km; for Stereoselectivity Km / Stereoselectivity ClInt / Stereoselectivity Vmax: ratio between enantiomers; for Stereoselectivity Km: given as for (R) or for 1 (first-eluting); for Km: read-out: Km ± SEM, net uptake minus empty vector control
NET, sequence (P23975 whole entry): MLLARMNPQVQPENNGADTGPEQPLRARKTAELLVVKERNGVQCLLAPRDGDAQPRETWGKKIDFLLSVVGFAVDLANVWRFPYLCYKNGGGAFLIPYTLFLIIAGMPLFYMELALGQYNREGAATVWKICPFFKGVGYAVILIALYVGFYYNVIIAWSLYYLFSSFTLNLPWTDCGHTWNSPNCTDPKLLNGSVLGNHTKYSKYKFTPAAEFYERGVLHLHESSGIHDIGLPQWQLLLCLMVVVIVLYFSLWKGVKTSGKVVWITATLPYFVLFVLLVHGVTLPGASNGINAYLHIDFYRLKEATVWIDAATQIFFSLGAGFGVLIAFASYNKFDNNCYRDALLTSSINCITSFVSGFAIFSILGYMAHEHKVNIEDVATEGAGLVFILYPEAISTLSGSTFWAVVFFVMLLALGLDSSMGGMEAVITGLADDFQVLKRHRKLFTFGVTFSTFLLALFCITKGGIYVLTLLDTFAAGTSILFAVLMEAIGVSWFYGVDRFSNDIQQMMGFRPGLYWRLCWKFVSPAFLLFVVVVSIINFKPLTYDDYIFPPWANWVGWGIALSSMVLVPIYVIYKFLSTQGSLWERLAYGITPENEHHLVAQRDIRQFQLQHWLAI

[1] = given as for (R) or for 1 (also 1.00-fold for 1/2)
[2] = given as for (R) or for 1 (first-eluting)
[3] = ratio between enantiomers, given as for (S) or for 2
[4] = Stereoselectivity Km, given as for (R) or for 1 (first-eluting)

Row | SMILES | Vmax ± SEM (OCT3) | Clint ± SEM (OCT3) | Stereoselectivity Vmax (OCT3) | Stereoselectivity ClInt (OCT3; [1]) | Stereoselectivity Km (OCT3) | Km (OCT3) | Transporter selectivity (OCT2 A270S variant) | Clint ± SEM (DAT; DAT) | Stereoselectivity Vmax (DAT; DAT) | Stereoselectivity Km (DAT; DAT) | Stereoselectivity ClInt (DAT; DAT) | Vmax ± SEM (DAT) | Km (DAT) | Saturable net uptake (SERT) | Vmax ± SEM (OCT1) | Clint ± SEM (OCT1) | Clint ± SEM (OCT2) | Clint ± SEM (NET) | Stereoselectivity Km (NET) | Stereoselectivity ClInt (NET; given as for (S) or for 2) | other results
1 | NC[C@H](O)c1ccccc1 [(R)-Bisnorephedrine] | 662 pmol × mg Protein^−1 × min^−1 | 4.00 mL × g Protein^−1 × min^−1 | 1.13 fold | 1.04 fold | 1.08 fold | 165 µM | 1.50 fold | 6.21 mL × g Protein^−1 × min^−1 | 1.17 fold | 1.18 fold | 1.01 fold | 27.2 pmol × mg Protein^−1 × min^−1 | 4.38 µM | No saturable net uptake | 218 pmol × mg Protein^−1 × min^−1 | 1.17 mL × g Protein^−1 × min^−1 | 22.6 mL × g Protein^−1 × min^−1 | 46.1 mL × g Protein^−1 × min^−1 | 1.01 fold | 1.24 fold | Stereoselectivity Vmax (OCT1; given as for (R) or for 1): 1.19 fold; Stereoselectivity ClInt (OCT1): 1.03 fold; Stereoselectivity Km (OCT1; [2]): 1.15 fold; Km (OCT1): 187 µM; Vmax ± SEM (OCT2): 847 pmol × mg Protein^−1 × min^−1; Vmax ± SEM (NET): 9.50 pmol × mg Protein^−1 × min^−1; Stereoselectivity Vmax (NET; given as for (S) or for 2): 1.23 fold; Km (NET): 206 nM
2 | NC[C@@H](O)c1ccccc1 [(S)-Bisnorephedrine] | 589 pmol × mg Protein^−1 × min^−1 | 3.85 mL × g Protein^−1 × min^−1 | 1.13 fold | 1.04 fold | 1.08 fold | 153 µM | 1.24 fold | 6.15 mL × g Protein^−1 × min^−1 | 1.17 fold | 1.18 fold | 1.01 fold | 31.7 pmol × mg Protein^−1 × min^−1 | 5.16 µM | No saturable net uptake | 184 pmol × mg Protein^−1 × min^−1 | 1.13 mL × g Protein^−1 × min^−1 | 10.0 mL × g Protein^−1 × min^−1 | 57.4 mL × g Protein^−1 × min^−1 | 1.01 fold | 1.24 fold | Stereoselectivity Vmax (OCT1; given as for (R) or for 1): 1.19 fold; Stereoselectivity ClInt (OCT1): 1.03 fold; Stereoselectivity Km (OCT1; [2]): 1.15 fold; Km (OCT1): 162 µM; Vmax ± SEM (OCT2): 602 pmol × mg Protein^−1 × min^−1; Vmax ± SEM (NET): 11.7 pmol × mg Protein^−1 × min^−1; Stereoselectivity Vmax (NET; given as for (S) or for 2): 1.23 fold; Km (NET): 204 nM
3 | COc1cc(C(O)CN)ccc1O (single isomer, unassigned) [Normetanephrine-2, Normetanephrine] |  | 21.6 mL × g Protein^−1 × min^−1 | 1.09 fold |  | 1.22 fold |  |  |  |  |  |  |  |  |  |  | 2.65 mL × g Protein^−1 × min^−1 | 5.92 mL × g Protein^−1 × min^−1 | 3.47 mL × g Protein^−1 × min^−1 | 1.35 fold | 1.28 fold | Stereoselectivity ClInt (OCT3; given as for (S) or for 2): 1.12 fold; Transporter selectivity (OCT2 A270S variant; listed as (S)-Normetanephrine): 1.08 fold; Saturable net uptake (DAT; DAT, result in words): No saturable net uptake; Clint ± SEM (SERT; quotient of vmax over Km): 4.05 mL × g Protein^−1 × min^−1; Stereoselectivity Km (SERT; ratio between enantiomers, given as for (R) or for 1 (first-eluting)): 1.08 fold; Stereoselectivity ClInt (SERT; [3]): 1.28 fold; Stereoselectivity Vmax (SERT; [3]): 1.67 fold; selectivity ratio at 2 min (OCT1; Stereoselectivity ClInt, given as for (S) or for 2): 1.08; selectivity ratio at 2 min (OCT1; [4]): 1.59; selectivity ratio at 2 min (OCT1; Stereoselectivity Vmax, given as for (R) or for 1): 1.47; selectivity ratio at 2 min (OCT2; Stereoselectivity ClInt, given as for (R) or for 1): 1.56; selectivity ratio at 2 min (OCT2; [4]): 1.32; selectivity ratio at 2 min (OCT2; Stereoselectivity Vmax, given as for (S) or for 2): 2.06; Stereoselectivity Vmax (NET; given as for (R) or for 1): 1.06 fold
